# Columns and labels:
# Test in all cases: relative viability (nuclei count vs DMSO), 5 days (fraction); higher = more cells survive
# [1] = compound: C[C@]1(O)C[C@@H](c2nc(-c3ccc4ccc(-c5ccccc5)nc4c3)c3c(N)nccn32)C1 [Linsitinib] + C[C@@H](Oc1cc(-c2cnn(C3CCNCC3)c2)cnc1N)c1c(Cl)ccc(F)c1Cl [Crizotinib] (partner 1 µM)
# Outline: (§1)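 Dosing by pin tool came one day after lung cancer cell lines were seeded in 1536-well plates, using either one drug or a fixed anchor-drug dose plus five library-drug doses (not always all listed) in √10 steps. After 5 days, nuclei were counted on 4× images. Relative viability is treated-well nuclei count divided by vehicle-well nuclei count, and values are medians of duplicate plates.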
# [2] = compound: C[C@]1(O)C[C@@H](c2nc(-c3ccc4ccc(-c5ccccc5)nc4c3)c3c(N)nccn32)C1 [Linsitinib] + O=C(c1cc(Cc2n[nH]c(=O)c3ccccc23)ccc1F)N1CCN(C(=O)C2CC2)CC1 [Olaparib] (partner 8 µM)
# Outline: as §1
# [3] = compound: Cc1ccc(C(=O)N(CCCN)[C@@H](c2nc3cc(Cl)ccc3c(=O)n2Cc2ccccc2)C(C)C)cc1 [Ispinesib] + CC(C)C[C@H](NC(=O)[C@H](Cc1ccccc1)NC(=O)c1cnccn1)B(O)O [Bortezomib] (partner 0.002 µM)
# Outline: as §1
# [4] = compound: Cc1ccc(C(=O)N(CCCN)[C@@H](c2nc3cc(Cl)ccc3c(=O)n2Cc2ccccc2)C(C)C)cc1 [Ispinesib] + Nc1ncn([C@H]2C[C@H](O)[C@@H](CO)O2)c(=O)n1 [Decitabine] (partner 2 µM)
# Outline: as §1
Cell Line,relative viability ([1]; first compound 0.01 µM),relative viability ([1]; first compound 0.03162 µM),relative viability ([1]; first compound 0.1 µM),relative viability ([1]; first compound 0.3162 µM),relative viability ([1]; first compound 1 µM),relative viability ([2]; first compound 0.01 µM),relative viability ([2]; first compound 0.03162 µM),relative viability ([2]; first compound 0.1 µM),relative viability ([2]; first compound 0.3162 µM),relative viability ([2]; first compound 1 µM),relative viability ([3]; first compound 0.001 µM),relative viability ([3]; first compound 0.003162 µM),relative viability ([3]; first compound 0.01 µM),relative viability ([3]; first compound 0.03162 µM),relative viability ([3]; first compound 0.1 µM),relative viability ([4]; first compound 0.001 µM),relative viability ([4]; first compound 0.003162 µM),relative viability ([4]; first compound 0.01 µM),relative viability ([4]; first compound 0.03162 µM),relative viability ([4]; first compound 0.1 µM)
201T,1.02,1.03,1.07,1.11,1.01,0.874,0.61,0.84,0.676,0.862,1.13,1.16,0.947,1.02,0.669,0.849,0.859,0.897,0.889,0.839
A549,0.685,0.771,0.684,0.623,0.473,0.344,0.376,0.384,0.244,0.195,–,–,–,–,–,0.149,0.254,0.326,0.315,0.196
A-427,0.872,0.779,1.04,–,0.726,0.71,0.73,0.75,–,0.584,0.98,1.07,1.01,0.351,0.206,0.578,0.539,0.587,0.395,0.3
ABC-1,1.26,1.01,1.01,0.614,0.905,0.859,1.04,0.785,1.09,0.626,0.269,0.317,0.302,0.197,0.273,0.997,1.12,1.35,–,0.509
BEN,0.767,1.01,0.993,0.611,0.826,1.03,0.987,1.17,0.686,0.953,0.927,1.01,0.851,0.431,0.201,0.714,0.737,0.785,0.421,0.375
CAL-12T,0.641,0.596,0.625,0.556,0.467,0.79,0.899,0.784,0.689,0.713,0.961,1.4,0.955,0.579,0.184,–,–,–,–,–
COR-L23,0.611,0.672,0.742,0.556,0.658,0.375,0.292,0.346,0.299,0.29,1.29,1.04,1.17,0.247,0.27,0.447,0.388,0.454,0.176,0.141
COR-L 105,0.938,0.7,0.845,0.631,0.471,0.762,0.635,0.685,0.538,0.516,0.836,0.664,0.325,0.311,0.303,0.595,0.662,0.67,0.43,0.337
Calu-6,0.79,0.701,0.837,0.717,0.708,0.537,0.46,0.542,0.501,0.458,0.9,0.725,0.24,0.137,0.202,–,–,–,–,–
ChaGo-K-1,1.08,1.07,1.14,0.812,1.04,0.426,0.404,0.401,–,0.365,1.02,1.45,1.11,0.966,0.379,0.463,0.56,0.494,0.574,0.521
EBC-1,0.168,0.173,0.212,0.197,0.193,0.664,0.851,0.703,0.623,0.691,0.663,0.626,0.476,0.207,0.263,–,–,–,–,–
EKVX,0.895,0.938,0.99,0.795,0.943,–,0.861,0.951,0.489,0.648,1.09,1.24,1.15,0.939,0.186,0.366,–,0.337,0.284,0.218
EMC-BAC-2,0.8,0.738,0.696,0.517,0.688,0.478,0.601,0.47,0.348,0.37,1.06,1.13,1.27,0.671,0.214,0.933,1.13,1.04,0.775,0.47
EPLC-272H,0.774,0.995,0.873,–,0.733,1.42,0.694,0.841,0.469,0.479,0.869,1.13,0.935,0.655,0.163,0.395,0.355,0.377,0.322,0.25
H3255,0.84,0.817,0.95,0.773,0.813,0.6,0.604,0.564,0.456,0.5,1,0.991,0.814,0.38,0.374,0.573,0.629,0.622,0.495,0.41
HARA,1.03,1.24,1.21,0.696,1.14,0.631,0.396,0.69,–,0.935,1.37,1.21,1.42,0.931,0.211,0.514,0.467,0.573,0.709,0.314
HCC-15,0.833,0.724,0.837,0.52,0.696,0.697,0.938,0.759,0.364,0.655,1.14,1.19,1.24,0.563,0.226,0.706,0.768,0.752,0.418,0.225

Cell Line,relative viability ([1]; first compound 0.01 µM),relative viability ([1]; first compound 0.03162 µM),relative viability ([1]; first compound 0.1 µM),relative viability ([1]; first compound 0.3162 µM),relative viability ([1]; first compound 1 µM),relative viability ([2]; first compound 0.01 µM),relative viability ([2]; first compound 0.03162 µM),relative viability ([2]; first compound 0.1 µM),relative viability ([2]; first compound 0.3162 µM),relative viability ([2]; first compound 1 µM),relative viability ([3]; first compound 0.001 µM),relative viability ([3]; first compound 0.003162 µM),relative viability ([3]; first compound 0.01 µM),relative viability ([3]; first compound 0.03162 µM),relative viability ([3]; first compound 0.1 µM),relative viability ([4]; first compound 0.001 µM),relative viability ([4]; first compound 0.003162 µM),relative viability ([4]; first compound 0.01 µM),relative viability ([4]; first compound 0.03162 µM),relative viability ([4]; first compound 0.1 µM)
HCC-44,0.704,0.78,0.739,0.56,0.612,1.01,0.924,1,0.858,0.916,0.911,1,1.1,0.719,0.131,0.909,0.954,0.967,0.795,0.453
IA-LM,0.763,0.775,0.736,0.656,0.496,0.906,0.976,0.871,0.796,0.75,1.09,0.814,0.866,0.0909,0.111,–,–,–,–,–
LK-2,0.249,0.224,0.222,0.234,0.257,0.63,0.721,0.683,0.415,0.389,–,–,–,–,–,0.253,0.419,0.36,0.216,0.153
NCI-H358,0.661,0.676,0.588,0.448,0.415,0.585,0.64,0.602,0.47,0.333,–,–,–,–,–,0.187,0.205,0.213,0.109,0.139
NCI-H522,–,–,–,–,–,0.895,0.588,0.554,0.512,0.57,–,–,–,–,–,0.662,0.649,0.751,0.687,0.673
NCI-H1299,0.96,0.975,1,0.949,0.931,0.915,1.03,1,0.976,0.93,1.02,1.06,1.07,1.01,0.671,–,–,–,–,–
NCI-H1395,–,–,–,–,–,0.451,–,0.441,0.454,0.444,–,–,–,–,–,0.734,0.746,0.577,0.467,0.412
NCI-H1563,0.886,0.847,0.852,0.818,0.955,–,–,–,–,–,0.903,0.815,0.929,0.687,0.669,–,–,–,–,–
NCI-H1648,–,–,–,–,–,0.766,0.941,1.31,0.377,0.399,–,–,–,–,–,0.532,0.484,0.474,0.614,0.343
NCI-H1703,0.585,–,0.595,0.93,0.35,0.479,–,0.448,0.755,0.189,0.28,0.298,0.0844,0.0907,0.106,–,–,–,–,–
NCI-H1793,–,–,–,–,–,0.772,0.841,0.628,0.666,0.697,–,–,–,–,–,0.411,0.473,0.624,0.524,0.229
NCI-H1944,1.05,1.21,1.17,0.926,0.892,0.437,0.521,0.4,0.333,0.382,–,–,–,–,–,0.416,0.412,0.467,0.417,0.443
NCI-H2170,1.12,1.02,1.2,0.89,1.11,0.533,0.519,0.598,–,0.506,–,–,–,–,–,0.518,0.532,0.548,0.46,0.379
NCI-H2228,0.411,0.419,0.399,0.298,0.398,0.763,0.601,0.735,0.379,0.477,1.2,1.21,1.48,0.474,0.448,–,–,–,–,–
NCI-H2342,–,–,–,–,–,0.532,0.565,0.481,0.438,0.407,–,–,–,–,–,0.821,0.756,0.76,0.743,0.78
SK-MES-1,0.955,1.06,1.01,0.826,0.931,0.702,0.784,0.633,0.584,0.557,–,–,–,–,–,0.359,0.393,0.286,0.187,0.211
SW 900,–,–,–,–,–,0.685,0.872,0.821,0.793,0.667,–,–,–,–,–,0.388,0.344,0.43,0.396,0.311
